This experiment addresses Muscarinic acetylcholine receptor M1 (Rattus norvegicus) (UniProt P08482). Put plainly: structure-activity potentiation of ACh at M1 – cell-based, calcium mobilization, CHO-K1, SAR follow-up (AID 2651). Conditions: CHO-K1 rat M1, calcium Fluo-4, ACh EC20 potentiation. For orientation: A change in cytosolic calcium serves as a functional read-out for many receptors and channels.

Usually EC50 stands for the concentration giving half of the maximal effect.

The source made the active and inactive calls.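 How the source made its calls: active means mean EC50 from three replicate curves at or below a set limit; inactive means mean EC50 above a set limit.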 Some results are limits rather than exact numbers.

Muscarinic acetylcholine receptor M1 (Rattus norvegicus), sequence (P08482 whole entry, looked up): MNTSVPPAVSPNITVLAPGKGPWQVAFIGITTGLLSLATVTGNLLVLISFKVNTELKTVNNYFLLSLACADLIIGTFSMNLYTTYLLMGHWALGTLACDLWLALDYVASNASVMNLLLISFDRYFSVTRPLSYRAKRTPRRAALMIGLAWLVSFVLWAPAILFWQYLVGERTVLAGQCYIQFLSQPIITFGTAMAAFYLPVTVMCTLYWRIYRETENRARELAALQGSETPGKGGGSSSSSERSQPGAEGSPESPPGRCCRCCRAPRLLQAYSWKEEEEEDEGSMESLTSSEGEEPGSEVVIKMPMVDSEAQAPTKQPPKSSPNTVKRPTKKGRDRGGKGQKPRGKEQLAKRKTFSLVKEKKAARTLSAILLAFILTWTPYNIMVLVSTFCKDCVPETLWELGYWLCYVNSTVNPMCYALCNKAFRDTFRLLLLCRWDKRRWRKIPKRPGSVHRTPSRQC

`Cc1cc(NC(=O)CS(=O)(=O)c2cn(Cc3ccc(Cl)c(Cl)c3)c3ccccc23)no1`: the EC50 is > 30 µM (inactive).
As to `Cc1cc(NC(=O)CS(=O)(=O)c2cn(Cc3ccc(F)c(Cl)c3)c3ccccc23)no1`, the EC50 is > 30 µM (inactive).
Then `Cc1cc(NC(=O)CS(=O)(=O)c2cn(Cc3cccc(-c4ccccc4)c3)c3ccccc23)no1`, with > 30 µM (inactive).
Regarding `Cc1cc(NC(=O)CS(=O)(=O)c2cn(Cc3cccc(C(F)(F)F)c3)c3ccccc23)no1`, the EC50 is > 30 µM (inactive).
Then `Cc1cc(NC(=O)CS(=O)(=O)c2cn(Cc3ccc(F)c(-c4ccn[nH]4)c3)c3ccccc23)no1`, with > 30 µM (inactive).

These data come from PubChem BioAssay AID2651 (Vanderbilt High Throughput Screening Facility, 2010).
